US20170002373A1, “METHOD OF PRODUCING LEAFY BIOMASS” (Imperial Innovations Limited, priority 2009, published 2017)

Assays:
GFP-6 calli = experiment: Shoot induction from transplastomic calli on solid MS medium; assay type: cell-based, Nicotiana tabacum Petit Havana; conditions: data not shown; for shoot formation from calli: GFP-6 calli grown on solid MS medium with TDZ, shoots after 6 weeks
[1] = tested on: transplastomic cell suspensions from the tobacco GFP-6 line; experiment: Shoot/leafy biomass production from cell suspensions in temporary immersion bioreactor; assay type: cell-based, Nicotiana tabacum Petit Havana; conditions: 2-L temporary immersion bioreactor, MS media supplemented with 0.1 μM TDZ, after about six weeks
Description: Given that transplastomic gene expression seemed to be highest in leaf tissue we sought to develop a method for the rapid production of leaf tissue from callus/cell suspensions. […] In order to scale up the production capacity, transplastomic cell suspensions from the tobacco GFP-6 line were loaded into a 2-L bioreactor and temporally submerged in MS media supplemented with 0.1 μM TDZ. […] During the first 14 days, no growth could be detected and shoots only started to grow after this period. Possibly this lag period is related to the time needed for cells to redifferentiate from callus tissue to leafy tissue in tobacco in a similar manner to the observed switch between calli and meristematic tissues in Arabidopsis thaliana (Gordon et al, 2007).
Tobacco biomass was generated by placing about 7 grams of Nicotiana tabacum Petit Havana cell suspensions in a 2-L temporary immersion bioreactor (Ducos et al, 2007). Immersions were performed over a 40-day period with 1-L MS media supplemented with 0.1 μM Thidiazuron (TDZ, Sigma, UK) every three hours for 5 min. Additionally, the media contained 100 mg/L of spectinomycin to prevent contamination and to select for transplastomic cells. The TDZ (Thidiazuron) concentration in MS media was estimated to be optimal at 0.1 μM by researchers in Nestle, based on calli solid induction in Petri dishes (data not shown). […]

Q: Which results are given for `O=C(Nc1ccccc1)Nc1cnns1` [Thidiazuron]?
A: shoot formation from calli (GFP-6 calli): able to induce shoot formation; shoot formation from calli (GFP-6 calli; listed as thidiazuron): induced the formation of shoots from calli; optimal TDZ concentration in MS media (GFP-6 calli; based on calli solid induction in Petri dishes, estimated by researchers in Nestle): 0.1 µM; shoot formation from cell suspensions [1]: a large number of shoots were produced
